Results published in article PMC7835349 (Communications Biology, 2021).
Where “and” joins values, the source holds several entries; their conditions need not be identical. Identical values can stand only once.

Assays:
OCI-LY10 xenograft = OCI-LY10 xenograft efficacy and survival; assay type: in vivo, C.B-17 SCID mouse; parameters: OCI-LY10 xenograft efficacy, individual animals: unit not given here; settings: for OCI-LY10 xenograft efficacy, individual animals: Acalabrutinib 12.5mpk BID
Description: (§1) Female C.B.−17 SCID mice were purchased from Charles River Laboratories. Mice were 5–8 weeks old at the time of tumour implantation. All xenograft studies were conducted at our Association for the Assessment and Accreditation of Laboratory Animal Care accredited facility in Waltham, MA in accordance with ethical regulations described in the guidelines established by the internal Institutional Animal Care and Use Committee. The dendrimer conjugates were formulated in citrate/phosphate buffer pH 5.0, diluted 1:10 with 5% glucose containing 1% w/v Kolliphor HS15, and AZD4320 was formulated in 30% HP-β-CD and dosed as a weekly intravenous (IV) administration at a volume of 5 ml/kg at the indicated doses. Five million RS4;11, five million SUDHL-4 or five million OCI-LY-10 cells were injected subcutaneously in the right flank of mice in a volume of 0.1 ml. Tumour volumes (measured by caliper), animal body weight, and tumor condition were recorded twice weekly for the duration of the study. The tumour volume was calculated (taking length to be the longest diameter across the tumour and width to be the corresponding perpendicular diameter) using the formula: length (mm) x width (mm)^2/0.52. For efficacy studies, mice were randomized based on tumour volumes using stratified sampling and enrolled into control and treatment groups. Tumour growth inhibition from the start of treatment was quantified by measuring the difference in tumour volume between control and treated groups. Survival analysis was evaluated using Mantel-Cox test. Tumours were also taken for bioanalysis.

SUDHL-4 xenograft = SUDHL-4 xenograft efficacy and survival; assay type: in vivo, C.B-17 SCID mouse; settings: Rituxan (Rtx) 10 mg/kg
Description: as §1

Molecule	OCI-LY10 xenograft efficacy, individual animals (OCI-LY10 xenograft; day 18)	OCI-LY10 xenograft efficacy, individual animals (OCI-LY10 xenograft; day 21)	OCI-LY10 xenograft efficacy, individual animals (OCI-LY10 xenograft; day 25)	OCI-LY10 xenograft efficacy, individual animals (OCI-LY10 xenograft; day 28)	OCI-LY10 xenograft efficacy, individual animals (OCI-LY10 xenograft; day 32)	OCI-LY10 xenograft efficacy, individual animals (OCI-LY10 xenograft; day 35)	OCI-LY10 xenograft efficacy, individual animals (OCI-LY10 xenograft; day 39)	OCI-LY10 xenograft efficacy, individual animals (OCI-LY10 xenograft; day 42)	monotherapy activity (OCI-LY10 xenograft; OCI-LY10 DLBCL model)	SUDHL-4 xenograft efficacy, Geo Mean (SUDHL-4 xenograft; day 1)	SUDHL-4 xenograft efficacy, Geo Mean (SUDHL-4 xenograft; day 5)	SUDHL-4 xenograft efficacy, Geo Mean (SUDHL-4 xenograft; day 9)	SUDHL-4 xenograft efficacy, Geo Mean (SUDHL-4 xenograft; day 12)	SUDHL-4 xenograft efficacy, Geo Mean (SUDHL-4 xenograft; day 16)	SUDHL-4 xenograft efficacy, Geo Mean (SUDHL-4 xenograft; day 19)	SUDHL-4 xenograft efficacy, Geo Mean (SUDHL-4 xenograft; day 23)	SUDHL-4 xenograft efficacy, Geo Mean (SUDHL-4 xenograft; day 26)	SUDHL-4 xenograft efficacy, Geo Mean (SUDHL-4 xenograft; day 29)	SUDHL-4 xenograft efficacy, Geo Mean (SUDHL-4 xenograft; day 32)
CC#CC(=O)N1CCC[C@H]1c1nc(-c2ccc(C(=O)Nc3ccccn3)cc2)c2c(N)nccn12 [acalabrutinib, reference compound]	127 and 164 and 248 and 101 and 210 and 188 and 174 and 141	221 and 332 and 538 and 104 and 333 and 303 and 198 and 259	299 and 256 and 495 and 88 and 284 and 527 and 334 and 162	232 and 311 and 519 and 141 and 436 and 334 and 361 and 191	363 and 375 and 663 and 150 and 384 and 401 and 347 and 391	402 and 443 and 532 and 209 and 471 and 429 and 383 and 277	393 and 553 and 891 and 198 and 472 and 366 and 578 and 547	405 and 474 and 589 and 106 and 385 and 656 and 416 and 224	neither agent showed any demonstrable monotherapy activity										
Rituxan (Rtx)										207.17	194.343	229.272	236.829	277.244	341.784	461.782	534.569	692.979	702.104
